The values that follow come from US9682962B2, “Pyrazolyl pyrimidinamine compound and application thereof” (SHENYANG SINOCHEM AGROCHEMICALS R&D CO., LTD., priority 2013, dated 2017).

The term inhibition denotes the share of the control response that was lost under treatment. One may read the mortality as the share of the test organisms that died. A word on the melting point: it is the temperature, or range, at which the solid turns liquid.

One series has as its system cucumber gray mold. The series can be described thus: Fungicidal activity in vitro (96-cell culture board), cucumber gray mold. The format is cell-based. To be noted: read-out: inhibition rate against cucumber gray mold.
The subject of a further series is cucumber downy mildew. The series can be described thus: Protectant activity in vivo (whole plant), cucumber downy mildew. To be noted: for control effect against cucumber downy mildew(%): protectant activity. The procedure:
(§1) The method is as followed: The whole plant is used in this test. The compound is dissolved in a proper solvent to get mother solution. The proper solvent is selected from acetone, methanol, DMF and so on according to their dissolving capability to the sample. […] The testing solution is sprayed to the host plant by a special plant sprayer. The plant is inoculated with fungus after 24 hours. According to the infecting characteristic of fungus, the plant is stored in a humidity chamber and then transferred into greenhouse after infection is finished. And the other plants are placed in greenhouse directly.

In series [1] the test system is Green peach aphids (Myzus Persicae Sulzer). Kind of series: Bioactivity test against green peach aphid (airbrush foliar spray). In kind it is in vivo. The protocol: (§2) Compounds were dissolved in mixed solvent (acetone:methanol=1:1), and diluted to required concentration with water containing 0.1% of tween 80.
(§3) Diamond back moth, armyworm, peach aphid and carmine spider mite were used as targets and the method of spraying by airbrush was used for determination of insecticidal bioassays.
Method: Filter papers were put in culture dishes (Diameter=6 cm), and water was dripped on filter papers for preserving moisture. Green peach aphids (Myzus Persicae Sulzer) were maintained on cabbage. Leaves (Diameter=3 cm) of approximately 15-30 aphids were put in the culture dishes. Bioactivity tests were used the method of Airbrush Foliar Spray, pressure=10 psi (0.7 kg/cm2), spray volume=0.5 mL. The studies were conducted at […] 25±1 C in incubator cabinets with 60±5% RH. Survey the survival aphids after 48 h and calculate the death rates.

A further series deals with corn rust. Kind of series: Protectant activity in vivo (whole plant), corn rust. To be noted: 1.6 ppm. The procedure: as §1
A further series concerns wheat powdery mildew. The series can be described thus: Protectant activity in vivo (whole plant), wheat powdery mildew. To be noted: protectant activity. The protocol: as §1
A further series deals with carmine spider mite. Kind of series: Bioactivity test against carmine spider mite (airbrush spray). The format is in vivo. To be noted: after 72 hrs; for mortality at 600 ppm: Tetranychus cinnabarinus, 72 h, read-out: control against carmine spider mite (mortality). The protocol: as §2, §3
The method: shoots with two true leaves in pot were taken, the healthy adults of carmine spider mite were inoculated to the leaves. The adults were counted and then sprayed with airbrush at the pressure of 0.7 kg/cm^2 and at dose of 0.5 ml. 3 replicates were set for each treatment. And then they were maintained in standard observation room. Scores were conducted and mortalities were calculated after 72 hrs.

Another series has as its system diamond back moth. The series can be described thus: Bioactivity test against diamond back moth (airbrush spray). To be noted: for control against diamond back moth (mortality): 600 ppm, after 72 h. In kind it is in vivo. The protocol:
as §2, §3
The method of spraying by airbrush: The cabbage leaves were made into plates of 2 cm diameter by use of punch. A test solution (0.5 ml) was sprayed by airbrush at the pressure of 0.7 kg/cm^2 to both sides of every plate. 10 Second instar larvae were put into the petri-dishes after the leaf disc air-dried and 3 replicates were set for each treatment. Then the insects were maintained in observation room (25° C., 60˜70% R.H.). Scores were conducted and mortalities were calculated after 72 h.

The subject of a further series is rice blast. The series can be described thus: microbe, parasite or virus in culture. The format is cell-based. To be noted: Pyricularia oryzae, read-out: inhibition rate against rice blast, 25 ppm, in vitro.

A value given as a limit tells only on which side of the number the result lay.

On to `CCc1ncnc(NCCc2cnn(-c3ccc(Cl)cc3)c2)c1Cl` [Compound 537], for which the inhibition at 25 ppm in the series with cucumber gray mold is greater than 80%. The “control effect against cucumber downy mildew(%)” value in the series on cucumber downy mildew (12.5 mg/L), in the series with cucumber downy mildew (25 mg/L), in the series on cucumber downy mildew (50 mg/L), in the series with cucumber downy mildew (100 mg/L) and in the series on cucumber downy mildew (400 mg/L) was 100% in each case. Further, the “protectant activity against cucumber downy mildew in vivo” value with cucumber downy mildew (6.25 ppm) came to 98%.
With `FC(F)c1ncnc(NCCc2cnn(-c3ccc(Cl)cc3Cl)c2)c1Cl` [Compound 817], the “Insecticidal activity against peach aphid (%)” value in series [1] (100 mg/L) and in series [1] (600 mg/L) was 100% in each case. Besides, the “protectant activity against corn rust in vivo” value in the series on corn rust is listed as 70%. The “control effect against wheat powdery mildew (%)” value with wheat powdery mildew (6.25 mg/L), with wheat powdery mildew (25 mg/L), in the series on wheat powdery mildew (100 mg/L) and in the series on wheat powdery mildew (400 mg/L) was 100% in each case. The “control against carmine spider mite (mortality)” value in the series on carmine spider mite (10 ppm) turned out to be 72%. The “Insecticidal activity against diamond back moth (%)” value stood at 21% in the series on diamond back moth (10 mg/L), 70% in the series with diamond back moth (100 mg/L) and 100% with diamond back moth (600 mg/L). The “control against diamond back moth (mortality)” value in the series on diamond back moth stood at 100%.
Take `Cc1nc(C)c(Cl)c(NCCc2cnn(-c3ccc(Cl)cc3Cl)c2)n1` [Compound 1373]: the “control effect against cucumber downy mildew(%)” value with cucumber downy mildew (12.5 mg/L), in the series on cucumber downy mildew (25 mg/L), in the series with cucumber downy mildew (50 mg/L), in the series on cucumber downy mildew (100 mg/L) and in the series with cucumber downy mildew (400 mg/L) was 100% throughout. Moreover, the “protectant activity against cucumber downy mildew in vivo” value with cucumber downy mildew (3.125 ppm) is given as 85%; in the series with cucumber downy mildew (6.25 ppm), 95%. Moreover, in the series on rice blast, the inhibition at 25 ppm was greater than 80%. In addition, the mortality at 600 ppm in the series on carmine spider mite was greater than 80%.
With `CCc1ncnc(NCCc2cnn(Cc3ccc(Cl)cc3)c2)c1Cl` [Compound 5657], the melting point was found to be 109.9 °C. Further, the inhibition at 25 ppm with cucumber gray mold is greater than 80%. The inhibition at 25 ppm in the series on rice blast was greater than 80%.
With `CCc1ncnc(NCCc2cnn(-c3ccc(Cl)cc3)c2)c1Cl.Cl` [Compound 10932], the inhibition at 25 ppm with rice blast was greater than 80%. In addition, the mortality at 600 ppm with carmine spider mite was greater than 80%. The results for the “Insecticidal activity against diamond back moth (%)” value in the series on diamond back moth (10 mg/L), in the series with diamond back moth (100 mg/L) and in the series with diamond back moth (600 mg/L) were 25%, 50% and 100%, respectively. For the same compound, the “control against diamond back moth (mortality)” value in the series with diamond back moth amounted to 100%.
